Source: patent US20130331417A1, “INSECTICIDAL MIXTURES WITH IMPROVED PROPERTIES” (BAYER INTELLECTUAL PROPERTY GMBH, priority 2010, published 2013)

Assays:
[1] = test system: Aphis gossypii; experiment: Aphis gossypii test, cotton seed treatment; type: in vivo
Experimental: (§1) The expected efficacy of a given combination of two compounds is calculated as follows (see Colby, S .R., “Calculating Synergistic and antagonistic Responses of Herbicide Combinations”, Weeds 15, pp. 20-22, 1967):
(§2) If the observed insecticidal efficacy of the combination is higher than the one calculated as “E”, then the combination of the two compounds is more than additive, i.e., there is a synergistic effect.
(§3) If not mentioned otherwise, the crystalline modification I of 4-{[(6-chloropyrid-3-yl)methyl](methyl)amino} furan-2(5H)-one has been prepared as a water-dispersible or water-soluble powder in an active ingredient concentration of 70% (wt/wt) involving the following formulation auxiliaries, whereas the amount of auxiliaries sums up to 100 wt. %:
(§4) The auxiliaries were mixed with the appropriate amount of the crystalline modification I of 4-{[(6-chloropyrid-3-yl)methyl](methyl)amino} furan-2(5H)-one. There is no water or solvent added. To enable the dry mixture to stick on the seed, the seed were treated with a minimal amount of water, namely 30 μl for 2 g canola seeds, and 800 μl für 20 g cotton seeds.
Cotton seeds were treated with the compounds or mixtures and sown. 10 days after germination the plants were infested with a mixed population of the cotton aphid (Aphis gossypii). After the specified period of time, the mortality in % is determined 100% means that all the aphids have been killed; 0% means that none of the aphids have been killed.

[2] = test system: Myzus persicae; experiment: Myzus persicae test, oil seed rape seed treatment; type: in vivo; conditions: after 2 days
Experimental: as §1, §2, §3, §4
Seeds of Oil seed rape were treated with the compounds or mixtures and sown. Ca. […]
After the specified period of time, the mortality in % is determined 100% means that all the aphids have been killed; 0% means that none of the aphids have been killed.

SMILES: O=[N+]([O-])NC1=NCCN1Cc1ccc(Cl)nc1 [Imidacloprid]
- Mortality ([1]; after 3 days, 0.01 mg ai/seed): 0%

SMILES: CCOC(=O)OC1=C(c2cc(C)ccc2C)C(=O)N[C@]12CC[C@@H](OC)CC2 [Spirotetramat]
- Mortality ([1]; after 2 days, 5 mg ai/seed): 0%

SMILES: CN(Cc1ccc(Cl)nc1)C1=CC(=O)OC1 [4-{[(6-chloropyrid-3-yl)methyl](methyl)amino} furan-2(5H)-one]
- Mortality ([1]; after 2 days (head above the row), 0.01 mg ai/seed): 60%
- Mortality ([1]; after 2 days, 0.025 mg ai/seed, infested 10 days after germination): 35%
- Mortality ([2]; 0.025 mg ai/seed, infested ca. 35 days after germination): 40%

SMILES: C/C(=N\C#N)N(C)Cc1ccc(Cl)nc1 [Acetamiprid]
- Mortality ([2]; 1 mg ai/seed): 0%
